One series deals with Keratinocytes. Nature of the series: Comparison of keratinocyte growth inhibition by gallium maltol, gallium nitrate and maltol, Example 3. The format is cell-based, human. As to conditions: gallium nitrate 1×10^-4 M; maltol 3×10^-4 M; 9 days, high Ca^+2 medium; FIG. 3. The source says:
(§1) Adult human keratinocytes from pooled donor skin were obtained from commercial sources (Cascade Biologics, Portland, Oreg., U.S.A.) and placed in 150 cm^2 bottom area culture flasks using culture medium 154 supplemented with HKGS (about 1%). At 80% confluency, cells were harvested with trypsin and cryopreserved until required.
At the start of the experiments, the required number of vials of keratinocytes was thawed, and the keratinocytes were placed in culture in 24 well plates at about 2,500 cells/cm^2 using the same culture medium as described above. After 24 hours (to allow attachment), the medium was changed to fresh 154 supplemented with HKGS (about 1%) and gallium maltol. Specifically, the fresh medium was prepared by addition of a sufficient amount of a stock solution to provide for six different compositions having a final gallium concentration of 10^-4 M, 10^-5 M, 10^-6 M, 10^-8 M, 10^-10 M, and 10^-12 M. The stock solution was prepared by adding 22.25 mg of gallium maltol to 50 mL of 154 medium and then passing the solution through a 0.2 μm filter and storing at 4° C.
When control cells were about 40% confluent (generally at 4-5 days in culture, all media were removed by aspiration, keratinocyte growth was assayed by crystal violet staining and conversion to cell numbers as described by Wilkinson, et al.^11. Specifically, cell layers rinsed in PBS, which was also aspirated, and 4 drops of crystal violet solution added to each well. The crystal violet solution was prepared by dissolving crystal violet (Fisher Scientific) in PBS:formaldehyde:ethanol (67:3:30%) to give a 0.5 w/v solution. A blank 24-well plate was treated similarly.
Keratinocytes were cultured in 24-well plates for 9 days in the manner described above in Example 2. […]
The cells were then cultured and subsequently evaluated for inhibition of keratinocyte proliferation in the manner described above.

Series [1] deals with keratinocyte cells. The format is cell-based, human. As to conditions: gallium nitrate 5×10^-4 M; maltol 15×10^-4 M; 2 days treatment, 1.2 mM Ca^+2; FIG. 7. As to the method: as §1
(§2) Culture was renewed for a further 24 hours. At this time, media were removed and discarded, and the cells lysed with 200 μL/well of the solution provided in the Cell Death Detection Kit ELISA Plus (Boehringer Mannheim Biochemicals, Indianapolis, Ind., U.S.A., catalogue number 1774425). Aliquots of the lysate (20 μL) from each of 2 or 3 wells were assayed for nucleosomal enrichment following the kit instructions.
The evaluation of apoptosis of keratinocytes was conducted to determine the relative affect on apoptosis achieved by gallium maltol, gallium nitrate and maltol. Specifically, keratinocyte cells were seeded in 12 well plates seed using culture medium 154. Cultures were continued for 4 days and the medium was changed to medium 154 with 1.2 mM Ca^+2 either without supplement or with one of the following supplements:
1. gallium maltol at a final concentration of 5×10^-4 M;
2. gallium nitrate at a final concentration of 5×10^-4 M;
3. maltol at a concentration of 15×10^-4 M; and
4. CAM at a concentration of 1×10^-5 M.
Three (3) wells were used in each group. The final amount of medium was 300 μL in each well. Culture was continued for 2 days. Bars represent absorbance at 405 nm minus the absorbance at 492 nm.

The test system of series [2] is keratinocyte cells. It counts as cell-based, human. As to conditions: for induction of apoptosis: 24 hours treatment.
Description: as §1
The induction of apoptosis is a critical feature in the programmed cell death as it relates to disease conditions such as cancer, psoriasis, etc. where the uncontrolled proliferation of "immortal" cells such as keratinocytes is a causative feature of the disease. This example compares the ability of gallium maltol to induce apoptosis as compared to negative control (no gallium maltol), and positive control (CAM--an agent known to strongly induce apoptosis). The ability for gallium maltol to effect apoptosis was also measured by the inhibitory effect of ATA.
Specifically, keratinocyte cells were grown using medium 154 in 24 well plates seed with 2,500 cells/cm^2 as described above. Cultures were continued for 3 or 6 days when the cells had achieved about 20 or 60% confluence respectively. On these 2 occasions, media were aspirated from groups of 3 or 4 wells and replaced with high Ca^+2 medium either without supplement or with one of the following supplements:
1. Gallium maltol at a final concentration of one of the following: (a) 5×10^-4 M, (b) 1×10^-4 M, (c) 5×10^-5 M, (d) 1×10^-5 M, and (e) 1×10^-6 M;
4. As in (3) plus CAM at 1×10^-5 or 1×10^-6 M; and
5. As in (3) plus gallium maltol at 1×10^-4 or 2.5×10^-4 M;
as §2

The conditions of series [3]: oral; cited from earlier work.

The structures appear in SMILES notation. Read-outs that look alike come from different tables or passages of the source.

In the case of `O=[N+]([O-])[O-].O=[N+]([O-])[O-].O=[N+]([O-])[O-].[Ga+3]` [gallium nitrate], the “effect on keratinocyte proliferation” value with Keratinocytes is on record as “neither gallium nitrate nor maltol had any effect on keratinocyte proliferation”. Moreover, in the series on keratinocyte cells [1], the effect on apoptosis entry is reported as “no significant effect on apoptosis”.

Regarding `CC[C@@]1(O)C(=O)OCc2c1cc1n(c2=O)Cc2cc3ccccc3nc2-1` [CAM, camptothecin, reference compound], the induction of apoptosis entry with keratinocyte cells [2] (1×10^-5 M, cultured 3 days prior, FIG. 5) is listed as “strongly induced apoptosis”; in the series with keratinocyte cells [2] (1×10^-6 M, cultured 6 days prior, FIG. 6), “strongly induced apoptosis”.

With `O=C(O)C1=CC(=C(c2ccc(O)c(C(=O)O)c2)c2ccc(O)c(C(=O)O)c2)C=CC1=O` [ATA, aurin tricarboxylic acid, reference compound], the “reduction of CAM-induced apoptosis” value with keratinocyte cells [2] (1×10^-4 M ATA + 1×10^-5 M CAM, cultured 3 days prior, FIG. 5) was “reduced by half”; with keratinocyte cells [2] (1×10^-4 M ATA + 1×10^-6 M CAM, cultured 6 days prior, FIG. 6) it was “reduced by half”.

Take `Cc1occc(=O)c1O` [maltol, 3-hydroxy-2-methyl-4-pyrone]: in the series on Keratinocytes, the “effect on keratinocyte proliferation” value is reported as “neither gallium nitrate nor maltol had any effect on keratinocyte proliferation”. For the same compound, the “toxicity when taken orally” value in series [3] is listed as “very low toxicities when taken orally”. The effect on apoptosis entry in the series with keratinocyte cells [1] is reported as “no significant effect on apoptosis”.

As for `CCc1occc(=O)c1O` [ethyl maltol, 3-hydroxy-2-ethyl-4-pyrone], the “toxicity when taken orally” value in series [3] is recorded as “very low toxicities when taken orally”.

Values taken from US5747482A, “Methods and compositions to inhibit keratinocyte proliferation” (priority 1996, dated 1998).
